Data from patent publication US9681669B2 (priority 2012, dated 2017).
Where two headings read alike, the source gives them in different places.

Assays:
P. infestans = assay type: in vivo, Phytophthora infestans; conditions: BABA 0.3 g/l; Desiree, Bintje, Ovatio; 6 dpi
[1] = tested on: Pathogenesis-related protein (PR-1); assay type: in vivo, Solanum tuberosum; conditions: BABA 0.3 g/l; all three genotypes

CC(N)CC(=O)O (stereo not drawn) [BABA, β-aminobutyric acid]
necrotic dots or lesions on treated plants (Bintje, BABA treatment (0.3 g/l)): no such lesions were observed | necrotic dots or lesions on treated plants (Desiree, two days after BABA treatment (0.3 g/l)): Small necrotic dots or lesions | effect on lesion size, SBE compared with BABA-treated plants (P. infestans): not significantly different | PR-1 protein induction compared with SBE [1]: stronger
